Converted amounts (≈) assume the structure as drawn.
Experiment: water-solubility of the product

## CC1(C)OC(C2OC(C)(C)O[C@H]2C(=O)NCCO)[C@@H](C(=O)NCCO)O1 (some centres unmarked) [GalX-di-ethanolamide]
In water, at ambient temperature
  water-solubility: approximately 25 wt. %
water
  solubility: ~350 mg/mL (≈ 930 mM)

— patent US10752637B2, “Bis-diox(ol)ane compounds” (Koninklijke Coöperatie Cosun U.A., priority 2016, dated 2020)
